Test results taken from a melting point compilation (Tetko et al.; mined from patent text by program, amines drawn as free bases though some values may be those of a salt).

Compound | melting point
O=C1CSc2cccc(F)c2N1 | 190 to 191 °C
O=C1Cc2ccccc2C(=O)N1c1ccc(Cl)cc1 | 178 to 180 °C
CCn1c(=O)c2c(nc(/C=C/c3ccc(OCCCCN)cc3)n2C)n(CC)c1=O | 212 to 214 °C
Cc1nc(-c2cccnc2)sc1-c1ccnc(Nc2cc(Cl)c(N3CCOCC3)c(Cl)c2)n1 | 276 to 278 °C
CNC(=O)Oc1cccc(C2CCCN2Cc2ccncc2)c1 (stereo unspecified) | 92 to 105 °C
Cc1c(-c2csc(-c3ccncc3)n2)c(=O)[nH]c2ccccc12 | > 250 °C
O=C(O)CSCn1cnnn1 | 98 to 101 °C
OCCn1c(NC2CCN(Cc3ccccc3)CC2)nc2cccnc21 | 126 °C
Clc1ccc2c(N3CCNCC3)n[nH]c2c1 | 135 to 137 °C
Cc1nc(-c2ccc(C#N)cc2)sc1C(=O)N1CC(O)O[C@@](Cn2cncn2)(c2ccc(F)cc2F)[C@H]1C (stereo partly specified) | 225 to 228 °C
CC(c1oc2ccccc2c(=O)c1-c1cccc(F)c1)n1ncc2c(Cl)ncnc21 (stereo unspecified) | 197 to 201 °C
O=C1CCC2c3ccccc3CCC2N1 (stereo unspecified) | 227 to 228 °C
O=C1NC(=O)C(c2cccc3ccsc23)O1 (stereo unspecified) | 130 to 132 °C
N#CSc1c(-c2ccccc2)[nH]c(Cl)c1C#N | 159 °C
Cc1cccc(NP(N)(N)=O)c1 | 159 to 162 °C
N=C(Nc1ccc(F)cc1)Nc1nc(-c2ccccc2)cs1 | 156 to 158 °C
CN1CCN(C(=O)c2ccc(N)cc2C(F)(F)F)CC1 | 154 to 156 °C

Compound | melting point
N#Cc1nc(-c2ccc(OCCN3CCCCC3)cc2)cs1 | 85 to 86 °C
NS(=O)(=O)c1ccc(-c2cnn(-c3ccc(F)cc3)c(=O)c2-c2ccc(F)cc2)cc1 | 213 to 216 °C
CCc1nc(O)c2sccc2n1 | 233 to 237 °C
CCOc1c(C=NOCc2ccccc2)c(=O)n(C)c(=O)n1C | 93 to 94 °C
C=CC12CCc3cc(O)ccc3C1CCC1(C)C(=O)CCC12 (stereo unspecified) | 239 to 242 °C
CCc1noc(-c2cn(-c3cccc(Oc4ccccc4)c3)cn2)n1 | 108 to 109 °C
COc1ccc(C2=NN(c3ccc(C4=NNC(=O)CC4C)cc3)C(=O)C3CC=CCC23)cc1OC (stereo unspecified) | 192 to 194 °C
O=C(NC1CCN(CCC2CCOc3ccccc32)CC1)C1CCc2ccccc2C1 (stereo unspecified) | 130 to 132 °C
COC[C@H]1CN(c2ccc3oc(-c4ccccc4)cc3c2)C(=O)O1 | 178 to 179 °C
Cc1cccc(Cn2c(NC3CCN(CCNc4ncccn4)CC3)nc3cccnc32)n1 | 187 °C
NC1=CN(N)NN=C1c1cccc(Cl)c1Cl | 216 to 218 °C
CCc1ncc(CCCOc2c(C)cc(-c3noc(C)n3)cc2C)s1 | 43 to 45 °C
CC(C)[Si](C(C)C)(C(C)C)C1c2ccccc2-c2ccccc21 | 122 to 123 °C
COc1ccc(-c2csc(Nc3cnccn3)n2)cc1OC | 205 to 207 °C
N#CC=C1c2ccccc2C=Cc2ccccc21 | 137 to 138 °C
Cc1c(C)c2c(c(C)c1OCc1ccccc1)C(c1ccc(C(C)C)cc1)C(C)(C)O2 (stereo unspecified) | 79 to 81 °C
O=C(Cn1ccnc1)c1ccc(Cl)c(Cl)c1 | 126 to 128 °C

Results, then the compound that gave them:

melting point | Compound
112 °C | CCOC(=O)c1ccc(N(C)C)nn1
89 to 90 °C | C=CC(=O)c1ccc([N+](=O)[O-])cc1
167 to 169 °C | CC(C)(C)c1cc(OCc2cccc(C(=O)O)c2)cc(C(C)(C)C)c1
208 to 210 °C | COc1ccc(C(=O)Nc2ccccc2)cc1NS(=O)(=O)c1cccc([N+](=O)[O-])c1
89 to 91 °C | CCOC(=O)C(C1c2ccccc2Oc2ccccc21)[N+](=O)[O-] (stereo unspecified)
120 to 122 °C | COC(=O)c1cc(O)cc(OCCCOc2ccc(OCc3ccccc3)cc2)c1
124 to 126 °C | COc1ccc(-n2cccc2-c2ccc(S(C)(=O)=O)cc2)cc1OC
199 to 201 °C | NS(=O)(=O)c1ccc2c(c1)C(=O)C1(CCOC1=O)S2 (stereo unspecified)
133 to 136 °C | COC(=O)c1ccc(NN)cc1S(=O)(=O)NC(C)(C)C
242 to 244 °C | Cc1cc(C(=O)O)cc(Cl)c1O
158 to 161 °C | Cc1cc([N+](=O)[O-])c(NC(C)C(=O)O)c([N+](=O)[O-])c1 (stereo unspecified)
> 250 °C | O=C(O)C1CCc2nc3cc(Cl)ccc3c(Cl)c2C1 (stereo unspecified)
212 °C | Cc1cc(C)c2nc(NC3CCN(CCC(N)=O)CC3)n(Cc3nc(C)ccc3O)c2c1
137 to 138 °C | CCOC(=O)C(=NO)c1cccnc1
152 to 153 °C | CCC(C)c1ccc(-n2c(-c3cc(C)c(OCCO)c(C)c3)nc3ccccc3c2=O)cc1 (stereo unspecified)
127 to 128 °C | CSc1ccc2cc(Nc3ccc(O)cc3)ccc2c1
150 to 151 °C | COC(=O)C(=CNC1CC1)C(=O)c1cc(F)c(Cl)cc1Cl
123 to 125 °C | COc1cc(C(=CC#N)c2cc(OC)c(OC)c(OC)c2)ccc1N
35 to 36 °C | CCOC(=O)c1c(C)nc(Cl)c([N+](=O)[O-])c1NC(C)(C)C
177 to 178 °C | COC(=O)CSCC(=O)c1ccc2[nH]c(=O)[nH]c2c1
157 to 158 °C | CCOC(=O)Oc1ccc(N)c(C(=O)O)c1

melting point | Compound
272 to 274 °C | COc1cc(C(C)C)ccc1C1(NC(N)=O)C(=O)c2ccccc2C1=O
194 °C | Cc1c(Cc2cccc(C(=O)O)c2)n(S(=O)(=O)c2cccc(C(C)(C)C)c2)c2ccc(C(F)(F)F)cc12
201 to 202 °C | CCOC(=O)Cn1c(=O)c2cc(Cc3ncc[nH]3)ccc2n(Cc2ccc(Cl)c(Cl)c2)c1=O
67 to 69 °C | OCC1Cc2cc(Cl)cc(C3CCCCC3)c2O1 (stereo unspecified)
82 to 86 °C | C[Si](C)(C)c1cc(Cl)sc1C(=O)NCCOS(C)(=O)=O
171 to 172 °C | O=[N+]([O-])c1ccccc1Nc1ccc(I)cc1
120 to 122 °C | Cc1cc(OC(=O)c2ccccc2)ccc1O
214 °C | O=C(NC(=O)c1ccccc1Cl)Nc1ccc(C(F)(F)F)cc1
222 to 228 °C | COc1ccc(C(=O)Nc2ccccc2)cc1NS(=O)(=O)c1cc(Cl)cc(Cl)c1
168 to 170 °C | CCCC(=O)c1cnc2c(CO)cccc2c1Nc1ccc(F)cc1C
> 300 °C | CS(=O)(=O)Nc1cc(O)c2c(c1)C(=O)c1cccc(O)c1C2=O
141 to 142 °C | COc1ccc(CCOc2cccc(-c3cccc(C(N)=O)c3)n2)cc1OC
205 to 207 °C | CCn1nc(-c2cccc(F)c2)c(C(C)=O)c(Nc2cccc3ncccc23)c1=O
240 °C | Cc1ccc(N2C(=O)c3nccnc3C2=O)nc1
84 to 85 °C | CC(=O)c1c(-c2ccccc2)nn2ccccc12
194 to 196 °C | COc1ccc(-c2noc3c2CCCC(C(=O)O)C3)cc1 (stereo unspecified)
97 to 98 °C | CCCCn1nc(-c2ccccc2)c(CC(=O)O)c1-c1ccccc1
181 to 183 °C | CC12CCC3c4cc(O)c(O)cc4CCC3C1CCC2O (stereo unspecified)
94 to 97 °C | O=C(O)c1cccc(NC(=O)C(CS)Cc2cccnc2)c1 (stereo unspecified)
111 to 112 °C | CCOC(=O)[C@@H](O)[C@@H]1OC(=O)c2c1cc(OC)c(OC)c2OC
114 to 116 °C | O=CNCc1ccc2[nH]cc(CCNC(=O)OCc3ccccc3)c2c1
